{
  "source": "patent EP2408450B1",
  "about": "“ALPHA-(N-SULFONAMIDO)ACETAMIDE COMPOUND AS AN INHIBITOR OF BETA AMYLOID PEPTIDE PRODUCTION” (Bristol-Myers Squibb Company, priority 2009, dated 2010)",
  "key": {"proximal duodenum": {"tested_on": "proximal duodenum", "assay": "Histopathology of the proximal duodenum (GI toxicity) in rats", "assay_type": "in vivo, rat", "conditions": "for Day 4 GI Tox: 4 days; for Day 7 GI Tox: 7 days; for GI Tox: 4-day", "method": "Female Harlan Sprague-Dawley rats (∼200 - 250 g) were dosed daily by oral gavage with a dosing vehicle of 99% PEG-400, 1% Tween-80 at 4 mL/kg in the morning. […] All procedures were done in concordance with ACUC guidelines. […] Plasma was obtained after centrifugation. […] CSF samples were centrifuged to remove cells or debris prior to dilution at 1:2 in 4% BSA and frozen for subsequent analysis.\nFollowing euthanasia by CO2 asphyxiation, approximately 3 cm long sections of the proximal duodenum were removed from the abdomen, rinsed with ice cold Phosphate buffered saline and placed into 10% buffered formalin prior to sectioning. Tissue sections of the duodenum were embedded in liquid paraffin, mounted onto blocks, and cut into triplicate sagittal (cross-luminal) ring sections and stained using the Periodic acid Schiff's base method prior to microscopic evaluation. All animals survived until scheduled necropsy was performed."}, "[1]": {"assay": "Metabolic stability in liver microsomes (human)", "assay_type": "in vitro ADME", "method": "(§1) Mouse, rat, dog, human, and cynomolgus monkey liver microsomes were obtained from BD Gentest (Woburn, MA). The lot numbers were 13 (mouse), 8 (rat), 8 (dog), 19 and 26 (human), and 3 (cynomolgus monkey). […] The reaction, conducted in triplicate, was initiated by the addition of NADPH followed by incubation at 37°C for 50 minutes. Aliquots of samples (0.25 mL) were taken at 0, 5, 10, 20, 30, 40 and 50 minutes and the reaction was quenched by the addition of 3 volumes of acetonitrile. […] The reaction, conducted in triplicate, was initiated by the addition of NADPH followed by incubation at 37 °C for 50 minutes. Aliquots of samples (0.25 mL) were taken at 0, 5, 10, 20, 30, 40 and 50 minutes and the reaction was quenched by the addition of 3 volumes of acetonitrile. […] The reaction, conducted in duplicate, was initiated by the addition of NADPH followed by incubation at 37°C for 40 minutes. Aliquots of samples (0.25 mL) were taken at 0, 5, 10, 15, 20, 30 and 40 minutes and the reaction was quenched by the addition of 3 volumes of acetonitrile. For all studies, samples were analyzed immediately by an LC/MS method."}, "CSF Aβ40": {"tested_on": "CSF Aβ40", "assay": "Rat CSF Aβ40 assay (4G8-TSD ELISA)", "assay_type": "in vivo", "conditions": "acute rat studies; read-out: ED50 for reduction of CSF Aβ40", "text": "As a result of these sequence differences, antibodies that recognize the N-terminal region of human Aβ, such as 26D6, bind weakly to rodent Aβ. […] Table 1: Summary of Antibody Pairs Used to Assay In vivo Samples Each of these assays was validated using several methods. […] The optimized and validated Aβ assays still contained a small amount of the signal (5-20% of vehicle control) which could not be depleted by anti-Aβ antibodies or treatment with γ-secretase inhibitors. […] Female Harlan Sprague-Dawley rats (∼200 - 250 g) were dosed daily by oral gavage with a dosing vehicle of 99% PEG-400, 1% Tween-80 at 4 mL/kg in the morning. […] All procedures were done in concordance with ACUC guidelines. […] Plasma was obtained after centrifugation. […] CSF samples were centrifuged to remove cells or debris prior to dilution at 1:2 in 4% BSA and frozen for subsequent analysis. […] Plates were coated with TSD antibody and washed as for the brain Aβ40 assay. CSF samples were diluted 1:10 in PBS, pH 7.8, 0.1 % Tween-20. At time of collection, CSF was previously diluted 1:2 in 4% BSA in water. […] Samples were detected using 4G8-biotin (Signet) diluted 1:8000 in PBS, 0.05% Tween, 0.1% BSA for 1 hour."}, "[2]": {"assay": "Metabolic stability in liver microsomes (rat)", "assay_type": "in vitro ADME", "method": "as §1"}},
  "note": "Marks after values point to notes of the source that are not given here.",
  "data": [
    {"smiles": "NC(=O)[C@@H](CCC(F)(F)F)N(Cc1ccc(-c2ncon2)cc1F)S(=O)(=O)c1ccc(Cl)cc1", "note": "[(2R)-2-[[(4-chlorophenyl)sulfonyl][[2-fluoro-4-(1,2,4-oxadiazol-3-yl)phenyl]methyl]amino]-5,5,5-trifluoropentanamide]", "values": [
      {"measurement": "rats with mild lesions in duodenal tissue (histological evaluation)", "setting": "proximal duodenum; 100 mg/kg/day, 4-day rat study", "result": "1/3"},
      {"measurement": "Day 4 GI Tox", "setting": "proximal duodenum; Rat Study No. 3, 30 mg/kg/day", "result": "NAD"},
      {"measurement": "Day 7 GI Tox", "setting": "proximal duodenum; Rat Study No. 3, 30 mg/kg/day", "result": "NAD"},
      {"measurement": "Day 4 GI Tox", "setting": "proximal duodenum; Rat Study No. 3, 300 mg/kg/day", "result": "+^b"},
      {"measurement": "Day 7 GI Tox", "setting": "proximal duodenum; Rat Study No. 3, 300 mg/kg/day", "result": "NAD"},
      {"measurement": "dose needed to induce GI toxicity", "setting": "proximal duodenum; female, Harlan Sprague-Dawley, rat, in vivo", "result": 100, "unit": "mg/kg/day"},
      {"measurement": "GI Tox", "setting": "proximal duodenum; rat, Study No. 2, 3 mg/kg/day", "result": "NAD"},
      {"measurement": "GI Tox", "setting": "proximal duodenum; rat, Study No. 2, 10 mg/kg/day", "result": "NAD"},
      {"measurement": "GI Tox", "setting": "proximal duodenum; rat, Study No. 2, 30 mg/kg/day", "result": "NAD"},
      {"measurement": "GI Tox", "setting": "proximal duodenum; rat, Study No. 2, 100 mg/kg/day", "result": "+^e"},
      {"measurement": "GI Tox", "setting": "proximal duodenum; rat, Study No.1, 3 mg/kg/day", "result": "NAD"},
      {"measurement": "GI Tox", "setting": "proximal duodenum; rat, Study No.1, 10 mg/kg/day", "result": "NAD"},
      {"measurement": "GI Tox", "setting": "proximal duodenum; rat, Study No.1, 30 mg/kg/day", "result": "NAD"},
      {"measurement": "drug-related duodenal changes", "setting": "proximal duodenum; rats given ≤ 30 mg/kg", "result": "No drug-related duodenal changes"},
      {"measurement": "microscopic evaluation of the proximal duodenum", "setting": "proximal duodenum; rats, 100 mg/kg/day once daily for 4 days, 1 of 3 animals", "result": "slight goblet cell metaplasia"},
      {"measurement": "rate of in vitro metabolism", "setting": "[1]; human microsomes, NADPH-fortified, 1 µM", "result": 32, "unit": "pmol/min/mg protein"},
      {"measurement": "predicted in vivo (serum) clearance", "setting": "[1]; human, scaled from liver microsome rate", "result": "~8", "unit": "mL/min/kg"},
      {"measurement": "ED50", "setting": "CSF Aβ40", "result": "1 to 10", "unit": "mg/kg"},
      {"measurement": "rate of in vitro metabolism", "setting": "[2]; rat microsomes, NADPH-fortified, 1 µM", "result": 630, "unit": "pmol/min/mg protein"},
      {"measurement": "predicted in vivo (serum) clearance", "setting": "[2]; rat, scaled from liver microsome rate", "result": "~52", "unit": "mL/min/kg"}
    ]}
  ]
}
